Data set [1] in a line: Plasma pharmacokinetics after single oral administration to mice. In kind it is in vivo. Conditions: male, CD1, mouse, single oral dose (Dose_PO: 10.0-90.0 mg/kg). The source says:
The purpose of this study was to evaluate plasma and tissue exposure of the following compounds after a single oral administration to mice: • 7-(3-(N-(4-fluoro-2,6-dimethylphenyl)sulfamoyl)phenyl)heptanoic acid (indicated below as DFL23806), • 7-(3-(N-(4-chloro-2,6-dimethylphenyl)sulfamoyl)phenyl)heptanoic acid (indicated below as DFL23914) • 7-(3-(N-(2,6-dimethyl-4-(trifluoromethyl)phenyl)sulfamoyl)phenyl)heptanoic acid (indicated below as DFL23922) • 7-(3-(N-(6-fluoro-4-methyl-[1,1′-biphenyl]-3-yl)sulfamoyl)phenyl)heptanoic acid (indicated below as DFL23916) • 7-(3-(N-(5-fluoro-3-methyl-[1,1′-biphenyl]-2-yl)sulfamoyl)phenyl)heptanoic acid (indicated below as DFL23917) • 7-(3-{[4-fluoro-2-methyl-5-(thiophen-2-yl)phenyl]sulfamoyl}phenyl)heptanoic acid (indicated below as DFL24102) […]
A retro-orbital, composite blood sampling at pre-dose or after dosing at 30 min, 1, 2, 6, 8 and 24 hours (three mice/time point) was carried out for the plasma pharmacokinetic assessment. Blood samples were collected in heparinized collection tubes. Samples were taken immediately onto ice and kept cool until centrifugation (10000 g for 3 minutes at about +4° C.). About 50 μL of plasma were stored in a freezer at −80° C. pending analysis.
After samples collection, bioanalysis for concentrations of the test compounds were done using HPLC-MS/MS methods and pharmacokinetic analysis of the compounds in plasma and tissues was performed according to standard non-compartmental approach using Watson system (v 7.6, Thermo Fisher Scientific Waltham, MA, USA) on mean concentration data.

Data set [2] is described as follows: Biodistribution in colon after single oral dose. In kind it is in vivo. Conditions: PO 90.0 mg/kg, male Swiss albino mice. The method, then: The biodistribution of DFL23806 in the proximal and distal colon was evaluated in male Swiss albino mice following single dose oral administration of DFL23806 90 mg/kg.
Colon concentration (ng/g) of DFL23806 after PO (90.0 mg/kg) dose administration to male Swiss albino mice.
Colon/Plasma ratio of DFL23806 after PO (90.0 mg/kg) dose administration to male Swiss albino mice.

Data set [3] concerns DSS-induced colitis. As to the kind of experiment: Mouse model of Dextran Sodium Sulfate-induced colitis. In kind it is in vivo, female C57/B16 mice. The text has this:
A mouse model of colitis induced by administration of Dextran Sodium Sulfate (DSS) (Wirtz S. et al. Nature Protocols; Volume: 2, Issue: 3 Pages: 541-546; 2007) was used to study the therapeutic effect of oral administration of DFL23806 on colitis.
In details, 8- to 12-week-old female C57/B16 mice were subjected to 3 oral cycles of 2.5% Dextran Sodium Sulfate (DSS) in drinking water (molecular mass, 40 kDa; MP Biomedicals), each cycle characterized by 7 days of DSS administration followed by 7 days of filter-purified water.
From day 3 of DSS administration, the mice were divided in 4 experimental groups, each receiving the treatment specified below: • Group 1: DSS (n=8)
No treatment, used as negative control. • Group 2: DSS+Vehicle (n=8)
Treated with 20% v/v Dimethyl Sulfoxide (DMSO) and 80% v/v Phosphate Buffered Saline (PBS), 0.1 M, pH 8 (Vehicle), used as a negative control. • Group 3: DSS+DFL 90 mg/kg (n=8)
Treated with DFL23806 dissolved in Vehicle, at the dosage of 90 mg/kg once a day. • Group 4: DSS+5-ASA 60 mg/kg (n=8)
Treated with 5-aminosalicylic acid (5-ASA) in Vehicle, at the dosage of 60 mg/Kg once a day, used as reference positive control.
Vehicle, DFL23806 and 5-ASA were administered daily, in the morning, by oral gavage, using plastic sterile feeding tubes 20 ga×30 mm. All mice were sacrificed on day 39.
A DAI score was established based on a scale that considers different parameters characterizing experimental colitis induction and progression (R S Walmsley et al. Gut 1998; 43:29-32).
Body weight, presence of gross blood in the feces, and stool consistency were recorded every 2 days. In details, the DAI was determined at each time point by scoring changes in weight loss (0=none, 1=1%-5%, 2=5%-10%, 3=10%-20%, 4=>20%); stool consistency (0=normal, 2=loose, 4=diarrhea); and rectal bleeding (0=normal, 2=occult bleeding, 4=gross bleeding).
Mice were sacrificed at day 39, colon were collected and colon lengths measured for each mouse, as additional parameter of intestinal inflammation.
The day of sacrifice (day 39), mice were anesthetized with 2% isoflurane and subjected to endoscopy, to confirm the inflammatory grade. The experimental endoscopy setup, denoted “Coloview system”, consisted of a miniature endoscope (scope 1.9 mm outer diameter), a xenon light source, a triple chip camera, and an air pump (all from Karl Storz, Tuttlingen, Germany) to achieve regulated inflation of the mouse colon. The endoscopic procedure was viewed on a colour monitor and a modified murine endoscopic index score of colitis severity was assigned on the basis of colon translucency (0-3 points), granular features of the mucosa (0-3 points), morphology of the vascular pattern (0-4 points), and the presence of fibrin (0-4 points), as previously described by Dr. D'Alessio (D'Alessio, S. et al. J. Clin. Invest. 124, 3863-3878; 2014) leading to a cumulative score between 0 (no signs of inflammation) and […] (endoscopic signs of very severe inflammation).
Histological analysis has been performed by an expert pathologist, in a blinded fashion, to grade the intestinal inflammation. More in details, colons of colitic mice in the various experimental groups have been evaluated for histological analyses using […] paraffin-embedded sections, stained with hematoxylin (Dako) and eosin (Diapath). A blinded pathologist evaluated the degree of inflammatory cell infiltration and mucosal damage, using the RACHMILEWITZ score (Table 1) (Rachmilewitz, D. et al. Gastroenterology 122, 1428-1441; 2002).

Where [4] appears, read: DFL23806 90 mg/kg oral once a day, versus DSS and DSS+Vehicle groups, already at day 7.
[5] abbreviates: colon, day 39, DFL 90 mg/kg, 5-ASA 60 mg/kg, compared with DSS+Vehicle.
The mark [6] stands for this setting: day 39, DFL23806 90 mg/kg, 5-ASA 60 mg/kg oral once a day, compared to DSS and DSS+Vehicle.

The source of these data is patent US20250177329A1, “GPR120 AGONISTS FOR THE TREATMENT OF INFLAMMATORY BOWEL DISEASE” (Dompe' Farmaceutici SPA, priority 2022, published 2025).

Broadly, the AUC(0-inf) is the area under the concentration-time curve extrapolated to infinity. Higher therefore signals more exposure. For orientation: AUC(0-t) means exposure summed from dosing to a finite time, without extrapolation to infinity. The low end stands for less exposure, the high end for more exposure. In general, Cmax refers to the peak of the concentration-time curve. The Tmax is the time from dosing to the highest level. As a reminder, the half-life is how long it takes for the measured level to halve. With `Cc1cc(F)cc(C)c1NS(=O)(=O)c1cccc(CCCCCCC(=O)O)c1` [DFL23806, 7-(3-(N-(4-fluoro-2,6-dimethylphenyl)sulfamoyl)phenyl)heptanoic acid], in data set [1], the area under the curve AUC(0-inf) stood at 405 ng·h/mL, the exposure AUC(0-t) came out at 354 ng·h/mL, the peak concentration (Cmax) is 106 ng/mL and the Tmax is 0.5 h. In data set [1], this molecule showed a half-life of 5.8 h. The “Colon/Plasma ratio, Mean” value in data set [2] (4.00 h, 90 mg/kg) turned out to be 64.20. Also, the Kp at 1 h in data set [2] (mouse, colon/plasma, 1.00 h, read-out: Colon/Plasma ratio, Mean) is 1.63. For the same molecule, the Kp at 4 h in data set [2] (mouse, colon/plasma, 4.00 h, read-out: Colon/Plasma ratio, Mean) is 64.2. The concentration at 1 h in data set [2] (mouse, colon, 1.00 h) amounted to 68.3 ng/g. Moreover, the concentration at 4 h in data set [2] (mouse, colon, 4.00 h) came to 3570 ng/g. In data set [3] (setting [4]), the “DAI (Disease Activity Index) score” value is recorded as “significant effect versus the controls” and the “percentage of body weight loss” value was “significant effect versus the controls”. Also, in data set [3] (DFL23806 90 mg/kg versus 5-ASA 60 mg/kg, at certain time points), the “body weight loss / DAI compared with 5-ASA” value was “even more effective than 5-ASA”. Moreover, in data set [3] (setting [5]), the “histological score (Rachmilewitz) for extent of flogosis” value is reported as “significantly reduced the histological score”, the “histological score (Rachmilewitz) for extent of ulceration” value is reported as “significantly reduced the histological score”, the “histological score (Rachmilewitz) for flogosis” value is “significantly reduced the histological score” and the “histological score (Rachmilewitz) for ulceration” value is reported as “significantly reduced the histological score”. Moreover, in data set [3] (setting [6]), the composite endoscopic score entry is “significantly inhibit chronic experimental colitis”, the “endoscopic score: colon thickness” value is listed as “significantly inhibit chronic experimental colitis”, the “endoscopic score: mucosal surface granularity” value was “significantly inhibit chronic experimental colitis” and the “endoscopic score: vascular pattern” value was “significantly inhibit chronic experimental colitis”. Moreover, in data set [3] (setting [6]), the “endoscopic score: visible fibrin” value is “significantly inhibit chronic experimental colitis”. In data set [3] (day 39, DFL23806 90 mg/kg, 5-ASA 60 mg/kg oral once a day, compared to DSS+vehicle), the colon length result is reported as “significant inhibitory effect”.
